Assay results: US12521393B2, “Cytotoxicity targeting chimeras for CCR2-expressing cells” (GLAXOSMITHKLINE INTELLECTUAL PROPERTY DEVELOPMENT LIMITED, priority 2021, dated 2026)
Where a name gives a salt, the structure may show the parent alone.

Test system: endogenous target monocytes in human PBMC
Test: PBMC ex vivo monocyte depletion flow cytometry assay (Example 200)
Format: cell-based
Settings: with anti-cotinine antibody (SEQ ID NO: 11/12), 18-24 hours, EC50 in molar, read-out: Ex Vivo Depletion Assay pEC50 (converted)
Procedure, shortened: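 Monocyte depletion is reported as pEC50, averaged or given individually across runs, and read by flow cytometry staining CD45, CD14 and CD4 with a viability dye. Compounds, diluted four-fold over 11 points from 1 mM DMSO stocks, were combined with 30 μg/mL Fc-enhanced anti-cotinine antibody and human PBMC, then incubated 18-24 h at 37° C.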

| Compound | EC50 [pM] |
| --- | --- |
| CC(C)N(C)[C@@H]1CC[C@H](N2CC[C@H](Nc3ncnc4ccc(C(F)(F)F)cc34)C2=O)[C@H](NC(=O)[C@H]2CC[C@H](N3CCC(C(=O)NCCOCCOCCNC(=O)[C@H]4CC(=O)N(C)[C@@H]4c4cccnc4)CC3)CC2)C1 [Example 135, 1-((1R,4r)-4-(((1R,2S,5R)-5-(Isopropyl(methyl)amino)-2-((S)-2-oxo-3-((6-(trifluoromethyl)quinazolin-4-yl)amino)pyrrolidin-1-yl)cyclohexyl)carbamoyl)cyclohexyl)-N-(2-(2-(2-((2S,3S)-1-methyl-5-oxo-2-(pyridin-3-yl)pyrrolidine-3-carboxamido)ethoxy)ethoxy)ethyl)piperidine-4-carboxamide 3Formic acid salt] | 1580 |
| CC(C)N(C)[C@@H]1CC[C@H](N2CC[C@H](Nc3ncnc4ccc(C(F)(F)F)cc34)C2=O)[C@H](NC(=O)[C@H]2CC[C@H](c3ccc(C(=O)NCCOCCOCCNC(=O)[C@H]4CC(=O)N(C)[C@@H]4c4cccnc4)cn3)CC2)C1 [Example 139, 6-((1R,4r)-4-(((1R,2S,5R)-5-(Isopropyl(methyl)amino)-2-((S)-2-oxo-3-((6-(trifluoromethyl)quinazolin-4-yl)amino)pyrrolidin-1-yl)cyclohexyl)carbamoyl)cyclohexyl)-N-(2-(2-(2-((2S,3S)-1-methyl-5-oxo-2-(pyridin-3-yl)pyrrolidine-3-carboxamido)ethoxy)ethoxy)ethyl)nicotinamide] | 5010 |
| CC(C)N(C)[C@@H]1CC[C@H](N2CC[C@H](Nc3ncnc4ccc(C(F)(F)F)cc34)C2=O)[C@H](NC(=O)[C@H]2CC[C@H](c3ccc(C(=O)NCCOCCOCCNC(=O)[C@H]4CC(=O)N(C)[C@@H]4c4cccnc4)nc3)CC2)C1 [Example 141, 5-((1R,4r)-4-(((1R,2S,5R)-5-(Isopropyl(methyl)amino)-2-((S)-2-oxo-3-((6-(trifluoromethyl)qinazolin-4-yl)amino)pyrrolidin-1-yl)cyclohexyl)carbamoyl)cyclohexyl)-N-(2-(2-(2-((2S,3S)-1-methyl-5-oxo-2-(pyridin-3-yl)pyrrolidine-3-carboxamido)ethoxy)ethoxy)ethyl)picolinamide] | 6310 |
| CC(C)N(C)[C@@H]1CC[C@H](N2CC[C@H](Nc3ncnc4ccc(C(F)(F)F)cc34)C2=O)[C@H](NC(=O)[C@H]2CC[C@@H](N3CCN(CCCCCCCCNC(=O)[C@H]4CC(=O)N(C)[C@@H]4c4cccnc4)CC3)CC2)C1 [Example 145, (2S,3S)-N-(8-(4-((1S,4s)-4-(((1R,2S,5R)-5-(Isopropyl(methyl)amino)-2-((S)-2-oxo-3-((6-(trifluoromethyl)quinazolin-4-yl)amino)pyrrolidin-1-yl)cyclohexyl)carbamoyl)cyclohexyl)piperazin-1-yl)octyl)-1-methyl-5-oxo-2-(pyridin-3-yl)pyrrolidine-3-carboxamide] | 1260 |
| CC(C)N(C)[C@@H]1CC[C@H](N2CC[C@H](Nc3ncnc4ccc(C(F)(F)F)cc34)C2=O)[C@H](NC(=O)COCCCCCCCCCOCCCCCCCNC(=O)[C@H]2CC(=O)N(C)[C@@H]2c2cccnc2)C1 [Example 153, (2S,3S)-N-(7-((9-(2-(((1R,2S,5R)-5-(Isopropyl(methyl)amino)-2-((S)-2-oxo-3-((6-(trifluoromethyl)quinazolin-4-yl)amino)pyrrolidin-1-yl)cyclohexyl)amino)-2-oxoethoxy)nonyl)oxy)heptyl)-1-methyl-5-oxo-2-(pyridin-3-yl)pyrrolidine-3-carboxamide] | 631 |
| CC(C)N(C)[C@@H]1CC[C@H](N2CC[C@H](Nc3ncnc4ccc(C(F)(F)F)cc34)C2=O)[C@H](NC(=O)c2cnn(C3CCN(C(=O)CCCCCCCCCCNC(=O)[C@H]4CC(=O)N(C)[C@@H]4c4cccnc4)CC3)c2)C1 [Example 156, N-((1R,2S,5R)-5-(Isopropyl(methyl)amino)-2-((S)-2-oxo-3-((6-(trifluoromethyl)quinazolin-4-yl)amino)pyrrolidin-1-yl)cyclohexyl)-1-(1-(11-((2S,3S)-1-methyl-5-oxo-2-(pyridin-3-yl)pyrrolidine-3-carboxamido)undecanoyl)piperidin-4-yl)-1H-pyrazole-4-carboxamide] | 794 |
| CC(C)N(C)[C@@H]1CC[C@H](N2CC[C@H](Nc3ncnc4ccc(C(F)(F)F)cc34)C2=O)[C@H](NC(=O)C2CC=C(c3ccc(OCCCCCCNC(=O)[C@H]4CC(=O)N(C)[C@@H]4c4cccnc4)cc3)CC2)C1 (stereo partly drawn) [Example 158, (2S,3S)-N-(6-((4′-(((1R,2S,5R)-5-(Isopropyl(methyl)amino)-2-((S)-2-oxo-3-((6-(trifluoromethyl)quinazolin-4-yl)amino)pyrrolidin-1-yl)cyclohexyl)carbamoyl)-2′,3′,4′,5′-tetrahydro-[1,1′-biphenyl]-4-yl)oxy)hexyl)-1-methyl-5-oxo-2-(pyridin-3-yl)pyrrolidine-3-carboxamide] | 501 |
| CC(C)N(C)[C@@H]1CC[C@H](N2CC[C@H](Nc3ncnc4ccc(C(F)(F)F)cc34)C2=O)[C@H](NC(=O)c2ccnc(CCCOCCOCCOCCOCCNC(=O)[C@H]3CC(=O)N(C)[C@@H]3c3cccnc3)c2)C1 [Example 160, N-((1R,2S,5R)-5-(Isopropyl(methyl)amino)-2-((S)-2-oxo-3-((6-(trifluoromethyl)quinazolin-4-yl)amino)pyrrolidin-1-yl)cyclohexyl)-2-(1-((2S,3S)-1-methyl-5-oxo-2-(pyridin-3-yl)pyrrolidin-3-yl)-1-oxo-5,8,11,14-tetraoxa-2-azaheptadecan-17-yl)isonicotinamide, 3Formic acid salt] | 31600 |
| CC(C)N(C)[C@@H]1CC[C@H](N2CC[C@H](Nc3ncnc4ccc(C(F)(F)F)cc34)C2=O)[C@H](NC(=O)CCCCCCCCC(=O)NCCCCCCCCCCNC(=O)[C@H]2CC(=O)N(C)[C@@H]2c2cccnc2)C1 [Example 165, N^1-((1R,2S,5R)-5-(isopropyl(methyl)amino)-2-((S)-2-oxo-3-((6-(trifluoromethyl)quinazolin-4-yl)amino)pyrrolidin-1-yl)cyclohexyl)-N^10-(10-((2S,3S)-1-methyl-5-oxo-2-(pyridin-3-yl)pyrrolidine-3-carboxamido)decyl)decanediamide] | 631 |
| CC(C)N(C)[C@@H]1CC[C@H](N2CC[C@H](Nc3ncnc4ccc(C(F)(F)F)cc34)C2=O)[C@H](NC(=O)CCOCCC(=O)N2CCC3(CCC(C(=O)NCCNC(=O)[C@H]4CC(=O)N(C)[C@@H]4c4cccnc4)CC3)CC2)C1 [Example 167, 3-(3-(3-(((1R,2S,5R)-5-(Isopropyl(methyl)amino)-2-((S)-2-oxo-3-((6-(trifluoromethyl)quinazolin-4-yl)amino)pyrrolidin-1-yl)cyclohexyl)amino)-3-oxopropoxy)propanoyl)-N-(2-((2S,3S)-1-methyl-5-oxo-2-(pyridin-3-yl)pyrrolidine-3-carboxamido)ethyl)-3-azaspiro[5.5]undecane-9-carboxamide] | 1580 |
| CC(C)N(C)[C@@H]1CC[C@H](N2CC[C@H](Nc3ncnc4ccc(C(F)(F)F)cc34)C2=O)[C@H](NC(=O)[C@H]2CC[C@@H](NC(=O)CCOCCOCCNC(=O)CCCNC(=O)[C@H]3CC(=O)N(C)[C@@H]3c3cccnc3)CC2)C1 [Example 176, (2S,3S)-N-(4-((2-(2-(3-(((1S,4s)-4-(((1R,2S,5R)-5-(Isopropyl(methyl)amino)-2-((S)-2-oxo-3-((6-(trifluoromethyl)quinazolin-4-yl)amino)pyrrolidin-1-yl)cyclohexyl)carbamoyl)cyclohexyl)amino)-3-oxopropoxy)ethoxy)ethyl)amino)-4-oxobutyl)-1-methyl-5-oxo-2-(pyridin-3-yl)pyrrolidine-3-carboxamide] | 316 |
| CC(C)N(CCOCCOCCC(=O)N[C@H]1CC[C@@H](C(=O)N[C@@H]2C[C@H](N(C)C(C)C)CC[C@@H]2N2CC[C@H](Nc3ncnc4ccc(C(F)(F)F)cc34)C2=O)CC1)C(=O)CCCNC(=O)[C@H]1CC(=O)N(C)[C@@H]1c1cccnc1 [Example 177, (2S,3S)-N-(4-(Isopropyl(2-(2-(3-(((1S,4s)-4-(((1R,2S,5R)-5-(isopropyl(methyl)amino)-2-((S)-2-oxo-3-((6-(trifluoromethyl)quinazolin-4-yl)amino)pyrrolidin-1-yl)cyclohexyl)carbamoyl)cyclohexyl)amino)-3-oxopropoxy)ethoxy)ethyl)amino)-4-oxobutyl)-1-methyl-5-oxo-2-(pyridin-3-yl)pyrrolidine-3-carboxamide] | 251 |
| CC(C)N(C)[C@@H]1CC[C@H](N2CC[C@H](Nc3ncnc4ccc(C(F)(F)F)cc34)C2=O)[C@H](NC(=O)CCCN2CCC3(CCC(C(=O)NCCNC(=O)[C@H]4CC(=O)N(C)[C@@H]4c4cccnc4)CC3)CC2)C1 [Example 183, 3-(4-(((1R,2S,5R)-5-(Isopropyl(methyl)amino)-2-((S)-2-oxo-3-((6-(trifluoromethyl)quinazolin-4-yl)amino)pyrrolidin-1-yl)cyclohexyl)amino)-4-oxobutyl)-N-(2-((2S,3S)-1-methyl-5-oxo-2-(pyridin-3-yl)pyrrolidine-3-carboxamido)ethyl)-3-azaspiro[5.5]undecane-9-carboxamide, 3 Formic acid salt] | 251 |
| CC(C)N(C)[C@@H]1CC[C@H](N2CC[C@H](Nc3ncnc4ccc(C(F)(F)F)cc34)C2=O)[C@H](NC(=O)C2CCN(C3CCN(C4CCN(CCCCNC(=O)[C@H]5CC(=O)N(C)[C@@H]5c5cccnc5)CC4)CC3)CC2)C1 [Example 185, N-((1R,2S,5R)-5-(isopropyl(methyl)amino)-2-((S)-2-oxo-3-((6-(trifluoromethyl)quinazolin-4-yl)amino)pyrrolidin-1-yl)cyclohexyl)-1″-(4-((2S,3S)-1-methyl-5-oxo-2-(pyridin-3-yl)pyrrolidine-3-carboxamido)butyl)-[1,4′:1′,4″-terpiperidine]-4-carboxamide] | 63.1 |
